{"source": "patent US20020137929A1", "about": "“1 - (3-heterocyclylphenyl) isothiourea, -isourea, -guanidine and -amidine herbicidal agents” (Intellectual Property Department, BASF Aktiengesellschaft, priority 1998, published 2002)", "key": {"[1]": {"system": "SETVI (Foxtail, Green)", "assay": "Preemergence herbicidal evaluation", "type": "in vivo, Setaria viridis", "details": "rated 4-5 weeks after treatment", "how_it_was_run": "(§1)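 Test compound, dissolved in aqueous acetone, was sprayed over planted soil cups at an equivalent of about 0.0156 to 0.500 kg/ha; seeds had been mixed with potting soil. Greenhouse growth followed, with visual 0-9 scoring of injury at four to five weeks.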"}, "[2]": {"system": "ORYSAT (Rice, Tebonnet)", "assay": "Postemergence herbicidal evaluation", "type": "in vivo, Oryza sativa, (L.) Tebonnet", "details": "postemergence", "how_it_was_run": "(§2)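 Herbicidal effect was judged by eye on a 0–9 scale covering stand, vigor, deformity, size and chlorosis, compared with controls, four to five weeks after seedlings about two weeks old were sprayed (40 psi, ~0.0156–0.500 kg/ha).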"}, "[3]": {"system": "ZEAMX (Corn, Field)", "assay": "Postemergence herbicidal evaluation", "type": "in vivo, Zea mays", "details": "postemergence", "how_it_was_run": "as §2"}, "[4]": {"system": "SAGPY (Arrowhead (Pygmaea))", "assay": "Postemergence weed control under flooded paddy conditions", "type": "in vivo, Sagittaria pygmaea", "details": "postemergence weeds, rated 3 to 4 weeks after treatment", "how_it_was_run": "(§3)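 Injury ratings (0–9 scale covering stand, vigor, malformation, size, chlorosis and overall appearance versus control) were made three to four weeks after treatment. Test material, about 0.0313 to 0.500 kg/ha a.i. in 50/50 v/v aqueous/acetone, was added to flood water 1.5 to 3 cm deep over 3 to 5 cm weeds and 1.5 to 2.5 leaf rice.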"}, "[5]": {"system": "CASOB (Sicklepod)", "assay": "Postemergence herbicidal evaluation", "type": "in vivo, Cassia obtusifolia", "details": "postemergence", "how_it_was_run": "as §2"}, "[6]": {"system": "CYPSE (Flatsedge)", "assay": "Postemergence weed control under flooded paddy conditions", "type": "in vivo, Cyperus serotinus", "details": "postemergence weeds, rated 3 to 4 weeks after treatment", "how_it_was_run": "as §3"}, "[7]": {"system": "AMBEL (Ragweed, Common)", "assay": "Preemergence herbicidal evaluation", "type": "in vivo, Ambrosia artemisifolia", "details": "rated 4-5 weeks after treatment", "how_it_was_run": "as §1"}, "[8]": {"system": "CHEAL (Lambsquarters, Common)", "assay": "Postemergence herbicidal evaluation", "type": "in vivo, Chenopodium album", "details": "postemergence", "how_it_was_run": "as §2"}, "[9]": {"system": "CYPSE (Flatsedge)", "assay": "Preemergence weed control under flooded paddy conditions", "type": "in vivo, Cyperus serotinus", "details": "rated 3-4 weeks after treatment", "how_it_was_run": "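Ratings on a 0-9 visual scale cover stand, vigor, malformation, size, chlorosis and overall appearance relative to a control, taken three to four weeks post-treatment. Application was into flood water over freshly sown silt loam at roughly 0.0313 to 0.500 kg/ha.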"}, "[10]": {"system": "CYPIR (Rice Flatsedge)", "assay": "Postemergence weed control under flooded paddy conditions", "type": "in vivo, Cyperus iria", "details": "postemergence weeds, rated 3 to 4 weeks after treatment", "how_it_was_run": "as §3"}, "[11]": {"system": "GLXMAW (Soybean, Williams)", "assay": "Preemergence herbicidal evaluation", "type": "in vivo, Glycine max, (L.) Merr. cv Williams", "details": "rated 4-5 weeks after treatment", "how_it_was_run": "as §1"}, "[12]": {"system": "GALAP (Galium)", "assay": "Postemergence herbicidal evaluation", "type": "in vivo, Galium aparine", "details": "postemergence", "how_it_was_run": "as §2"}, "[13]": {"system": "ORYSAT (Rice, Tebonnet)", "assay": "Preemergence herbicidal evaluation", "type": "in vivo, Oryza sativa, (L.) Tebonnet", "details": "rated 4-5 weeks after treatment", "how_it_was_run": "as §1"}}, "data": [{"smiles": "Cn1c(C(F)(F)F)cc(=O)n(-c2cc(N=C3SCC(=O)N3C3CCOC3=O)c(Cl)cc2F)c1=O", "note": "(stereo not shown) [Compound 73]", "values": [{"measurement": "Preemergence herbicidal rating SETVI", "setting": "[1]; rate 0.0156 kg/ha", "result": 0.0}, {"measurement": "Preemergence herbicidal rating SETVI", "setting": "[1]; rate 0.0313 kg/ha", "result": 1.0}, {"measurement": "Preemergence herbicidal rating SETVI", "setting": "[1]; rate 0.0625 kg/ha", "result": 0.0}, {"measurement": "Preemergence herbicidal rating SETVI", "setting": "[1]; rate 0.1250 kg/ha", "result": 9.0}, {"measurement": "Preemergence herbicidal rating SETVI", "setting": "[1]; rate 0.2500 kg/ha", "result": 9.0}, {"measurement": "ORYSAT herbicidal rating", "setting": "[2]; rate 0.0158 kg/ha", "result": 2.5}, {"measurement": "ORYSAT herbicidal rating", "setting": "[2]; rate 0.0315 kg/ha", "result": 3.0}, {"measurement": "ORYSAT herbicidal rating", "setting": "[2]; rate 0.0630 kg/ha", "result": 4.0}, {"measurement": "ZEAMX herbicidal rating", "setting": "[3]; rate 0.0158 kg/ha", "result": 4.5}, {"measurement": "ZEAMX herbicidal rating", "setting": "[3]; rate 0.0315 kg/ha", "result": 4.5}, {"measurement": "ZEAMX herbicidal rating", "setting": "[3]; rate 0.0630 kg/ha", "result": 5.0}, {"measurement": "Herbicidal rating SAGPY", "setting": "[4]; Rate 0.1250 kg/ha", "result": 3.0}, {"measurement": "Herbicidal rating SAGPY", "setting": "[4]; Rate 0.2500 kg/ha", "result": 4.0}, {"measurement": "CASOB herbicidal rating", "setting": "[5]; rate 0.0158 kg/ha", "result": 1.0}, {"measurement": "CASOB herbicidal rating", "setting": "[5]; rate 0.0315 kg/ha", "result": 7.0}, {"measurement": "CASOB herbicidal rating", "setting": "[5]; rate 0.0630 kg/ha", "result": 7.0}, {"measurement": "Herbicidal rating CYPSE", "setting": "[6]; Rate 0.1250 kg/ha", "result": 2.0}, {"measurement": "Herbicidal rating CYPSE", "setting": "[6]; Rate 0.2500 kg/ha", "result": 4.0}, {"measurement": "Preemergence herbicidal rating AMBEL", "setting": "[7]; rate 0.0156 kg/ha", "result": 1.0}, {"measurement": "Preemergence herbicidal rating AMBEL", "setting": "[7]; rate 0.0313 kg/ha", "result": 0.0}, {"measurement": "Preemergence herbicidal rating AMBEL", "setting": "[7]; rate 0.0625 kg/ha", "result": 4.0}, {"measurement": "Preemergence herbicidal rating AMBEL", "setting": "[7]; rate 0.1250 kg/ha", "result": 9.0}, {"measurement": "Preemergence herbicidal rating AMBEL", "setting": "[7]; rate 0.2500 kg/ha", "result": 9.0}, {"measurement": "CHEAL herbicidal rating", "setting": "[8]; rate 0.0158 kg/ha", "result": 4.0}, {"measurement": "CHEAL herbicidal rating", "setting": "[8]; rate 0.0315 kg/ha", "result": 9.0}, {"measurement": "CHEAL herbicidal rating", "setting": "[8]; rate 0.0630 kg/ha", "result": 9.0}, {"measurement": "CYPSE herbicidal effect rating", "setting": "[9]; 0.1250 kg/ha", "result": 2.0}, {"measurement": "CYPSE herbicidal effect rating", "setting": "[9]; 0.2500 kg/ha", "result": 4.0}, {"measurement": "Herbicidal rating CYPIR", "setting": "[10]; Rate 0.1250 kg/ha", "result": 0.0}, {"measurement": "Herbicidal rating CYPIR", "setting": "[10]; Rate 0.2500 kg/ha", "result": 6.0}, {"measurement": "Preemergence herbicidal rating GLXMAW", "setting": "[11]; rate 0.0156 kg/ha", "result": 0.0}, {"measurement": "Preemergence herbicidal rating GLXMAW", "setting": "[11]; rate 0.0313 kg/ha", "result": 1.0}, {"measurement": "Preemergence herbicidal rating GLXMAW", "setting": "[11]; rate 0.0625 kg/ha", "result": 1.0}, {"measurement": "Preemergence herbicidal rating GLXMAW", "setting": "[11]; rate 0.1250 kg/ha", "result": 1.0}, {"measurement": "Preemergence herbicidal rating GLXMAW", "setting": "[11]; rate 0.2500 kg/ha", "result": 9.0}, {"measurement": "GALAP herbicidal rating", "setting": "[12]; rate 0.0158 kg/ha", "result": 3.0}, {"measurement": "GALAP herbicidal rating", "setting": "[12]; rate 0.0315 kg/ha", "result": 7.0}, {"measurement": "GALAP herbicidal rating", "setting": "[12]; rate 0.0630 kg/ha", "result": 6.0}, {"measurement": "Preemergence herbicidal rating ORYSAT", "setting": "[13]; rate 0.0156 kg/ha", "result": 0.0}, {"measurement": "Preemergence herbicidal rating ORYSAT", "setting": "[13]; rate 0.0313 kg/ha", "result": 0.0}, {"measurement": "Preemergence herbicidal rating ORYSAT", "setting": "[13]; rate 0.0625 kg/ha", "result": 2.0}, {"measurement": "Preemergence herbicidal rating ORYSAT", "setting": "[13]; rate 0.1250 kg/ha", "result": 2.0}, {"measurement": "Preemergence herbicidal rating ORYSAT", "setting": "[13]; rate 0.2500 kg/ha", "result": 4.0}]}]}
